In the assay the target is T1, human M5 receptors (hM5) (Homo sapiens, UniProt P08912).
T1 construct: expressed in transfected cells
T1 sequence (P08912 1-532): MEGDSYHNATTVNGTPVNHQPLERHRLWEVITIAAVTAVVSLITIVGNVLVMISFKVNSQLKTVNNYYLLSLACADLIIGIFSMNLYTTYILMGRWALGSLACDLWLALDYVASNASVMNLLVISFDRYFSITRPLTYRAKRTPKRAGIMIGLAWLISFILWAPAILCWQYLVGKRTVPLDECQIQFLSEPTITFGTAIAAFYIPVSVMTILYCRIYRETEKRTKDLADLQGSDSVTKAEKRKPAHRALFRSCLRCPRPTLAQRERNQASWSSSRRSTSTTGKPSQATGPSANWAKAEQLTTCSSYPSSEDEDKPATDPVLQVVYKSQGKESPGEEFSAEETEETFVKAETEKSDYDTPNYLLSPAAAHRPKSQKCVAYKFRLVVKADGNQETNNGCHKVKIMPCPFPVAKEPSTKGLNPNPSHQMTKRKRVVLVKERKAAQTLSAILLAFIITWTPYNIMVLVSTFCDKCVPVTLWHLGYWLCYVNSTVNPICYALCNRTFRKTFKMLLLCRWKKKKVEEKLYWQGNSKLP
The assay is described as follows: Cell-based functional calcium mobilization assay of mAChR M5 activity (inhibition of EC80 acetylcholine response) in CHO cells. To be noted: CHO cells stably expressing hM5; for pIC50: calcium flux (Fluo-4), EC80 acetylcholine addition; for EC80 MIN: minimum of EC80 acetylcholine response, normalized to maximum acetylcholine response. An outline of the steps: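 CHO cells stably expressing human M5, loaded with Fluo-4 AM in HBSS/20 mM HEPES/2.5 mM probenecid pH 7.4. Compound added 140 s before acetylcholine EC20, then EC80 added 125 s later. Calcium flux normalized to maximal acetylcholine response; IC50 from ten-point curves in the EC80 window.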
In general terms: Calcium assays in cells follow changes in intracellular calcium, usually with a dye or a luminescent sensor.

pIC50: −log10 of the molar value.

What is called pIC50 is −log10 of the IC50, conventionally taken in molar units.

For the compound `CC1(C(=O)Nc2ccc3scnc3c2)CCN(S(=O)(=O)c2ccc3ncsc3c2)CC1` [Compound 105, N-(benzo[d]thiazol-5-yl)-1-(benzo[d]thiazol-6-ylsulfonyl)-4-methylpiperidine-4-carboxamide], the pIC50 is below 5.00 and the “EC80 MIN” value is recorded as 25%.

On to `CC1(C(=O)Nc2ccc3scnc3c2)CCN(S(=O)(=O)c2ccc(Cl)nc2)CC1` [Compound 106, N-(benzol[d]thiazol-5-yl)-1-((6-chloropyridin-3-yl)sulfonyl)-4-methylpiperidine-4-carboxamide], for which the negative logarithm of the IC50 (pIC50) was below 5.00 and the “EC80 MIN” value is reported as 35%.

Consider `CC1(C(=O)Nc2ccc3scnc3c2)CCN(S(=O)(=O)c2cccc3nsnc23)CC1` [Compound 107, 1-(benz.o[c][1.2.5]thiadiazol-4-ylsulfony1)-N-(benzo[d]thiazol-5-yl)-4-methylpiperidine-4-carboxamide], for which the pIC50 is below 5.00 and the “EC80 MIN” value is listed as 24%.

Consider `O=C(Nc1ccc2scnc2c1)C1(F)CCN(S(=O)(=O)c2ccc3ncsc3c2)CC1` [Compound 108], for which the pIC50 was below 5.00 and the “EC80 MIN” value came to 22%.

Regarding `Cc1nn(C)cc1S(=O)(=O)N1CCC(F)(C(=O)Nc2ccc3scnc3c2)CC1` [Compound 109, N-(benzo[d]thiazol-5-yl]-1-((1,3-dimethyl-1H-pyrazol-4-yl)sulfonyl)-4-fluoropiperidine-4-carboxamide], the negative-log IC50 (pIC50) is below 5.00 and the “EC80 MIN” value is 9%.

As for `Cn1cnc2cc(NC(=O)C3CCN(S(=O)(=O)c4ccc5c(c4)CCO5)CC3)ccc21` [Compound 110, 1-((2,3-dihydrobenzofuran-5-yl)sulfonyl)-N-(1-methyl-1H-benzo[d]imidazol-5-yl)piperidine-4-carboxamide], the negative-log IC50 (pIC50) is below 5.00 and the “EC80 MIN” value is reported as 53%.

Consider `C[C@@H]1CN(S(=O)(=O)c2ccc3c(c2)CCO3)C[C@@H]1C(=O)Nc1ccc2scnc2c1` [Compound 111, (3R,4S)-N-(benzo[d]thiazol-5-yl)-1-((2,3-dihydrobenzofuran-5-yl)sulfonyl)-4-methylpyrrolidine-3-carboxamide], for which the negative-log IC50 (pIC50) is 7.42 and the “EC80 MIN” value is reported as 3%.

Consider `Cc1nn(C)cc1S(=O)(=O)N1CCC(C)(C(=O)Nc2ccc3scnc3c2)CC1` [Compound 112, N-(benzo[d]thiazol-5-yl)-1-((1,3-dimethyl-1H-pyrazol-4-yl)sulfonyl)-4-methylpiperidine-4-carboxamide], for which the pIC50 is below 5.00 and the “EC80 MIN” value turned out to be 58%.

Take `O=C(Nc1ccc2scnc2c1)C1(F)CCN(S(=O)(=O)c2ccc3c(c2)CCO3)CC1` [Compound 113, N-(benzo[d]thiazol-5-yl)-1-((2.3-dihydrobenzofuran-5-yl)sulfonyl)-4-fluoropiperidine-4-carboxamide]: the negative logarithm of the IC50 (pIC50) was 6.15 and the “EC80 MIN” value is on record as 10%.

On to `O=C(Nc1ccc2scnc2c1)C1(F)CCN(S(=O)(=O)c2cccnc2)CC1` [Compound 114, N-(benzo[d]thiazol-5-yl)-4-fluoro-1-(pyridin-3-ylsulfonyl)piperidine-4-carboxamide], for which the pIC50 is 5.69 and the “EC80 MIN” value was 4%.

`O=C(Nc1ccc2scnc2c1)C1(F)CCN(S(=O)(=O)c2cccc3nsnc23)CC1` [Compound 115, 1-(benzo[c][1,2,5]thiadiazol-4-ylsulfonyl)-N-(benzo[d]thiazol-5-yl)-4-fluoropiperidine-4-carboxamide]: the negative-log IC50 (pIC50) was below 5.00 and the “EC80 MIN” value was found to be 51%.

Regarding `Cc1ccc(S(=O)(=O)N2CCC(C(=O)Nc3ccc4scnc4c3)CC2)cn1` [Compound 124], the pIC50 is 6.98 and the “EC80 MIN” value is reported as 3%.

With `CC1(C)COc2ccc(S(=O)(=O)N3CCC(C(=O)Nc4ccc5scnc5c4)CC3)cc21` [Compound 126, N-(benzo[d]thiazol-5-yl)-1-((3,3-dimethyl-2,3-dihydrobenzofuran-5-yl)sulfonyl)piperidine-4-carboxamide], the pIC50 is below 5.00 and the “EC80 MIN” value came to 55%.

Consider `CC1(C)COc2ccc(S(=O)(=O)N3CC[C@@H](C(=O)Nc4ccc5scnc5c4)C3)cc21` [Compound 127, (R)-N-(benzo[d]thiazol-5-yl)-1-((3,3-dimethyl-2,3-dihydrobenzofuran-5-yl)sulfonyl)pyrrolidine-3-carboxamide], for which the negative-log IC50 (pIC50) is below 5.00 and the “EC80 MIN” value was 8%.

On to `C[C@H]1CN(S(=O)(=O)c2ccc3c(c2)C(C)(C)CO3)C[C@@H]1C(=O)Nc1ccc2scnc2c1` [Compound 128, (3R,4R)-N-(benzo[d]thiazol-5-yl)-1-((3,3-dimethyl-2,3-dihydrobenzofuran-5-yl)sulfonyl)-4-methylpyrrolidine-3-carboxamide], for which the negative logarithm of the IC50 (pIC50) was below 5.00 and the “EC80 MIN” value came out at 29%.

Take `C[C@@H]1CN(S(=O)(=O)c2ccc3c(c2)C(C)(C)CO3)C[C@@H]1C(=O)Nc1ccc2scnc2c1` [Compound 129]: the negative-log IC50 (pIC50) is 5.19 and the “EC80 MIN” value turned out to be 4%.

Turning to `O=C(Nc1ccc2cccnc2c1)C1CCN(S(=O)(=O)c2ccc3c(c2)CCO3)CC1` [Compound 135, 1-((2,3-dihydrobenzofuran-5-yl)sulfonyl)-N-(quinolin-7-yl)pipcridinc-4-carboxamide], the negative logarithm of the IC50 (pIC50) was 5.74 and the “EC80 MIN” value came out at 3%.

On to `O=C(Nc1ccc2scnc2c1)[C@@H]1CCN(S(=O)(=O)c2ccc3ncsc3c2)C1` [Compound 136, (R)-N-(benzo[d]thiazol-5-yl)-1-(benzo[d]thiazol-6-ylsulfonyl)pyrrolidine-3-carboxamide], for which the negative-log IC50 (pIC50) was 6.54 and the “EC80 MIN” value was found to be 2%.

In the case of `Cc1nn(C)cc1S(=O)(=O)N1CC[C@@H](C(=O)Nc2ccc3scnc3c2)C1` [Compound 137, (R)-N-(benzo[d]thiazol-5-yl)-1-((1,3-dimethyl-1H-pyrazol-4-yl)sulfonyl)pyrrolidine-3-carboxamide], the negative-log IC50 (pIC50) is below 5.00 and the “EC80 MIN” value was determined as 6%.

For the compound `CC1(C)CN(S(=O)(=O)c2ccc3c(c2)CCO3)CCC1C(=O)Nc1ccc2scnc2c1` (stereo not drawn) [Compound 138, N-(benzo[d]thiazol-5-yl)-1-((2,3-dihydrobenzofuran-5-yl)sulfonyl)-3,3-dimethylpiperidine-4-carboxamide], the negative logarithm of the IC50 (pIC50) is below 5.00 and the “EC80 MIN” value was determined as 7%.

`[2H]C1([2H])Oc2ccc(S(=O)(=O)N3CCC(C(=O)Nc4ccc5scnc5c4)CC3)cc2C1([2H])[2H]` [Compound 139, N-(benzo[d]thiazol-5-yl)-1-((2,3-dihydrobenzofuran-5-yl-2,2,3,3-d4)sulfonyl)piperidine-4-carboxamide]: the negative-log IC50 (pIC50) is 7.12 and the “EC80 MIN” value came out at 2%.

As for `[2H]C1([2H])Oc2ccc(S(=O)(=O)N3CC[C@@H](C(=O)Nc4ccc5scnc5c4)C3)cc2C1([2H])[2H]` [Compound 140], the negative-log IC50 (pIC50) was 7.46 and the “EC80 MIN” value is given as 2%.

For `CC1(C)CN(S(=O)(=O)c2ccc3ncsc3c2)CCC1C(=O)Nc1ccc2scnc2c1` (stereo not drawn) [Compound 141, N-(benzo[d]thiazol-5-yl)-1-(benzo[d]thiazol-6-ylsulfonyl)-3,3-dimethylpiperidine-4-carboxamide], the pIC50 is below 5.00 and the “EC80 MIN” value worked out at 38%.

As for `CC1(C)CN(S(=O)(=O)c2ccc(Cl)nc2)CCC1C(=O)Nc1ccc2scnc2c1` (stereo not drawn) [Compound 142], the pIC50 is 5.35 and the “EC80 MIN” value stood at 3%.

The values above are taken from patent US20230303552A1, “ARYLSULFONYL DERIVATIVES AND THEIR USE AS MUSCARINIC ACETYLCHOLINE RECEPTOR M5 INHIBITORS” (Vanderbilt University, priority 2020, published 2023).
